Measurements: paper PMC11868595, “Safety, pharmacokinetics and efficacy of HA121-28 in patients with advanced solid tumors and RET fusion-positive non-small-cell lung cancer: a multicenter, open-label, single-arm phase 1/2 trial” (Signal Transduction and Targeted Therapy, 2025)
Like-named read-outs stand apart in the source and are kept apart here. Marks after values point to notes of the source that are not given here.

Assays:
RON = RON (Homo sapiens, UniProt Q04912); experiment: Tyrosine kinase inhibition; type: biochemical
Sequence of RON (Q04912 25-1400): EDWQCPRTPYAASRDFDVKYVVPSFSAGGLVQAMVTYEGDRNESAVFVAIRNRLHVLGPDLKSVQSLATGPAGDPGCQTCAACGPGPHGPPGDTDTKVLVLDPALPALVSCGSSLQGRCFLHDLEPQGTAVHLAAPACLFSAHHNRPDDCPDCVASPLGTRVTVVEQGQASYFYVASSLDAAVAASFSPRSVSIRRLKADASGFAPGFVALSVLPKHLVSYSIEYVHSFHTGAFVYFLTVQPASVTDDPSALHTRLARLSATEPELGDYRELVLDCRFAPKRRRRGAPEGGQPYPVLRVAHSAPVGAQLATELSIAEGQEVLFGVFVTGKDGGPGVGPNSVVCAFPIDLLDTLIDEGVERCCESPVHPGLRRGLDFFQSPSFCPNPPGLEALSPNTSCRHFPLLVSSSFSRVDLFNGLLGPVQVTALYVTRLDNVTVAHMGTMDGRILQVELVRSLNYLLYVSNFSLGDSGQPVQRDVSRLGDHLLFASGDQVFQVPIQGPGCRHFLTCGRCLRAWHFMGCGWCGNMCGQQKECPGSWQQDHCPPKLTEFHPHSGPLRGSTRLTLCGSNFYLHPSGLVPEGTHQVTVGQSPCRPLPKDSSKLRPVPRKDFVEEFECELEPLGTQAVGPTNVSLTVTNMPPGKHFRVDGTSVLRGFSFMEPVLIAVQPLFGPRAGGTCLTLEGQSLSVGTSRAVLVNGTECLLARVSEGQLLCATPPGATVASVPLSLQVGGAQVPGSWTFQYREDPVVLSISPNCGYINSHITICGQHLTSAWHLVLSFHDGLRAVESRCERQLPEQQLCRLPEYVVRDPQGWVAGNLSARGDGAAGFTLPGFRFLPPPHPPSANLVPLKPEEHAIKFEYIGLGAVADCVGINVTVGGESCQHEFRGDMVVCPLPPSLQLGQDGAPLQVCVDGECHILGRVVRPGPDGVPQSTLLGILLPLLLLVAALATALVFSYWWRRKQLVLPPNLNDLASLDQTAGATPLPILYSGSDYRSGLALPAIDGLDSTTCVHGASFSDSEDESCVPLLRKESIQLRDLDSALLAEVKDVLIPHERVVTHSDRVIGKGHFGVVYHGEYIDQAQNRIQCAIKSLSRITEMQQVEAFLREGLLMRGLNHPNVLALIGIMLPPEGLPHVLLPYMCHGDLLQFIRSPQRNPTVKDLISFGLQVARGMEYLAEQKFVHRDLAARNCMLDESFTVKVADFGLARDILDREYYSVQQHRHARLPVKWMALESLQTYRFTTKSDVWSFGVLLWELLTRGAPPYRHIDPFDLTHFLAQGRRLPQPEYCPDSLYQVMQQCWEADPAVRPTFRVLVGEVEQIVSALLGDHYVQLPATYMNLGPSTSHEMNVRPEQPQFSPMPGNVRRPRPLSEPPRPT

Mouse micronucleus test = details: in vivo mouse micronucleus test
A498 cells = experiment: Tumor cell proliferation in vitro; type: cell-based
SGC-7901 cells = experiment: Tumor cell proliferation in vitro; type: cell-based, human; details: SGC7901
HT29 cells = experiment: Tumor cell proliferation in vitro; type: cell-based
Plasma protein binding [1] = type: in vitro ADME; details: rats
BTK = BTK (Homo sapiens, UniProt Q06187); experiment: Tyrosine kinase inhibition; type: biochemical
Sequence of BTK (Q06187 whole entry): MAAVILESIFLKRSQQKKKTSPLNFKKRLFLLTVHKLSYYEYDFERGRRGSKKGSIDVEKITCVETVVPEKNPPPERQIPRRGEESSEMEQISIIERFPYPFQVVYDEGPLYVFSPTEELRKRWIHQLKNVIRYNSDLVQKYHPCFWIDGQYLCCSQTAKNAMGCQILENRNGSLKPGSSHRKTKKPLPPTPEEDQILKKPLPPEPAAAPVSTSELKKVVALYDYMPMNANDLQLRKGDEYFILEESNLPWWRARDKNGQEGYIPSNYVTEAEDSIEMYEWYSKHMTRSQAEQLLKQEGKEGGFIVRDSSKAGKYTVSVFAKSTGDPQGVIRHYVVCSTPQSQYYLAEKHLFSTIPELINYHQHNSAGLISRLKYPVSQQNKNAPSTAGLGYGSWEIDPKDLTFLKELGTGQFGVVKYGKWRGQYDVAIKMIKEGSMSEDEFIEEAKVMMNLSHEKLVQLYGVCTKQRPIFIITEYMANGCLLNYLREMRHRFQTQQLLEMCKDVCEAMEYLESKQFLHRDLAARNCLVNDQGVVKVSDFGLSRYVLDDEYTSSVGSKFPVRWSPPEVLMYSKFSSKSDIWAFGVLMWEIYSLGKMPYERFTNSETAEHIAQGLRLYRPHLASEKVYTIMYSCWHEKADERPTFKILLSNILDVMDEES

MDA-MB-231 cells = experiment: Tumor cell proliferation in vitro; type: cell-based
Plasma protein binding [2] = type: in vitro ADME; details: dogs
[3] = test system: EGFR signaling in tumor tissue; experiment: PK/PD in plasma and tumor tissue of tumor-bearing mice; type: in vivo; details: after a single dose, 25 and 50 mg/kg
FGFR1-3 = type: biochemical
A431 cells = experiment: Tumor cell proliferation in vitro; type: cell-based, human; details: A431; read-out: IC50, proliferation
8305C cells = experiment: Tumor cell proliferation in vitro; type: cell-based
Metabolites in plasma = details: monkeys
[4] = Tissue distribution in rats; type: in vivo; details: for time of distribution peak: intragastric
FMS = FMS (Homo sapiens, UniProt P07333); experiment: Tyrosine kinase inhibition; type: biochemical
Sequence of FMS (P07333 20-972): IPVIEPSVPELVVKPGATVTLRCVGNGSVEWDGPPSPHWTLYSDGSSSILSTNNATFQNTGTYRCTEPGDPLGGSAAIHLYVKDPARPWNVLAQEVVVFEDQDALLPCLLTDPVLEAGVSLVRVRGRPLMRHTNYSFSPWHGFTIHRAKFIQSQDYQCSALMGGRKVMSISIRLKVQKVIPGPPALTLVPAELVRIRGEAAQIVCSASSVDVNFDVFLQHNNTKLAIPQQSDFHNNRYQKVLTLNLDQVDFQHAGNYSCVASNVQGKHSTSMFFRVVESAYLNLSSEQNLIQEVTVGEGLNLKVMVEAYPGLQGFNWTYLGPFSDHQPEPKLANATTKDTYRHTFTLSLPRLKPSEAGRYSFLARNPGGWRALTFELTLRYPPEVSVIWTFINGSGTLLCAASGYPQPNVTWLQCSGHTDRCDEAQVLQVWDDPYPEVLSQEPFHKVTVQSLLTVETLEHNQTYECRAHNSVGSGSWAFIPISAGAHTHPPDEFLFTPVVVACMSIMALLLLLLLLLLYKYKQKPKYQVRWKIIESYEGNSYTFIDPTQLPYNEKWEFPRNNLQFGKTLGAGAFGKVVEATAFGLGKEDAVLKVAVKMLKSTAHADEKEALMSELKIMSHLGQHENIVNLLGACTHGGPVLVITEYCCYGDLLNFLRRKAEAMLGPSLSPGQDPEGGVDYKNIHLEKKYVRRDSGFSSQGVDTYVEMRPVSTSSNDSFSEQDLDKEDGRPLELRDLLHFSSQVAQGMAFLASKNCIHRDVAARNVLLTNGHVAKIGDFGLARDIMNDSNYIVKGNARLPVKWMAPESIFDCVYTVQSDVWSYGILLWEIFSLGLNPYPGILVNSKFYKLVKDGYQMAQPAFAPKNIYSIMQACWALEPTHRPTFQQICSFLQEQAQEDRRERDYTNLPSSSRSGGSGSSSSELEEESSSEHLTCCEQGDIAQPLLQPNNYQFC

HUVEC cells = details: 50 ng/mL VEGF165
[5] = test system: human thyroid cancer TT tumors; experiment: TT tumors in nude mice; type: in vivo; details: for RTV ±SD / T/C / Terminal Tumor Volume: TT tumors
Text: (§1) was higher than that of vandetanib .
as §1
Table S15. Efficacy of HA121-28 on human thyroid cancer TT tumors

FLT3 = FLT3 (Homo sapiens, UniProt P36888); experiment: Tyrosine kinase inhibition; type: biochemical
EGFR(T790M /L828R) = EGFR(T790M /L828R) (Homo sapiens, UniProt P00533, T790M); experiment: Tyrosine kinase inhibition; type: biochemical
Sequence of UniProt P00533 (P00533 695-1210 T790M, form open): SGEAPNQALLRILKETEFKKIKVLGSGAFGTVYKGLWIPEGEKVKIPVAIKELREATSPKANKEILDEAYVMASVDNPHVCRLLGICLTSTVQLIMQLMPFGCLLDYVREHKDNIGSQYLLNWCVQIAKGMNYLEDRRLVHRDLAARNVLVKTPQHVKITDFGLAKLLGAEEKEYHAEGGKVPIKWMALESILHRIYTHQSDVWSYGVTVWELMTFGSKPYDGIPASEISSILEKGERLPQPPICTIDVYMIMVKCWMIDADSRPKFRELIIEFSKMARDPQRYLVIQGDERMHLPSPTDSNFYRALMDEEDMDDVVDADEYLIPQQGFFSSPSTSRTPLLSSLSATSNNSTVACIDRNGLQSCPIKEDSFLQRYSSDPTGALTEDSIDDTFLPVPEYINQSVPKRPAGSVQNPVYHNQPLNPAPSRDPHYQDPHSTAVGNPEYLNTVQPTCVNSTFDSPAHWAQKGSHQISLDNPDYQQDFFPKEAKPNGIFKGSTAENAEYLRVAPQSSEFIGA

ABL1 = ABL1 (Homo sapiens, UniProt P00519); experiment: Tyrosine kinase inhibition; type: biochemical
Sequence of ABL1 (P00519 whole entry): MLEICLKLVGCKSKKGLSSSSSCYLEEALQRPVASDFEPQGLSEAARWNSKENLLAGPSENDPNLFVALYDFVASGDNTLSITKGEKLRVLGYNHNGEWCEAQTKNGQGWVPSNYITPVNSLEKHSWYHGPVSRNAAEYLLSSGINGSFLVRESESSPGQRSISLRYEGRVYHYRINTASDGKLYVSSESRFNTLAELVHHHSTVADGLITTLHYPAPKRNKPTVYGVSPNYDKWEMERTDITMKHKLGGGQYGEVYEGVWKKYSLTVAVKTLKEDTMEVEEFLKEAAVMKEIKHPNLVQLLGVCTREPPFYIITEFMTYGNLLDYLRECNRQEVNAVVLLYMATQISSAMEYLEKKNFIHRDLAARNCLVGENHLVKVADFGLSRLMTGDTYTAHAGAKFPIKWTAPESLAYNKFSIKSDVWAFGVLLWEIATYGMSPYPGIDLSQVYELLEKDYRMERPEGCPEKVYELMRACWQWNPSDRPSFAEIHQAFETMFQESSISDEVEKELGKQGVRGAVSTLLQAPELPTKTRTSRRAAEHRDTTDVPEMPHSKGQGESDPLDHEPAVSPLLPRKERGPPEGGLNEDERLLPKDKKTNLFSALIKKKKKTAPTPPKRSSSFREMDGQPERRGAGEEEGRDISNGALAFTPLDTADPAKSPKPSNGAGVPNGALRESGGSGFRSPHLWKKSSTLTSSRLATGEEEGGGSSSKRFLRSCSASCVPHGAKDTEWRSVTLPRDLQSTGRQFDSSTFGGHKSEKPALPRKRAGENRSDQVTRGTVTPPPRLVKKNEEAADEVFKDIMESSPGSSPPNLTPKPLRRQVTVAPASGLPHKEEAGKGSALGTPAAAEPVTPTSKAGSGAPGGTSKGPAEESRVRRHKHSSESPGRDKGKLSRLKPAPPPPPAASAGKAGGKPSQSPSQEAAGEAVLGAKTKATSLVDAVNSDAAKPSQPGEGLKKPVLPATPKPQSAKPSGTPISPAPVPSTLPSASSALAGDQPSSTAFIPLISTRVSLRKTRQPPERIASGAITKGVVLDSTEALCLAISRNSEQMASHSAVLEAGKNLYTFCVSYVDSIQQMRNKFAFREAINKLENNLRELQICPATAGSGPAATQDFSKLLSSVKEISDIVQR

ALK1 = ALK1 (Homo sapiens, UniProt P37023); experiment: Tyrosine kinase inhibition; type: biochemical
Sequence of ALK1 (P37023 142-503 limits assumed): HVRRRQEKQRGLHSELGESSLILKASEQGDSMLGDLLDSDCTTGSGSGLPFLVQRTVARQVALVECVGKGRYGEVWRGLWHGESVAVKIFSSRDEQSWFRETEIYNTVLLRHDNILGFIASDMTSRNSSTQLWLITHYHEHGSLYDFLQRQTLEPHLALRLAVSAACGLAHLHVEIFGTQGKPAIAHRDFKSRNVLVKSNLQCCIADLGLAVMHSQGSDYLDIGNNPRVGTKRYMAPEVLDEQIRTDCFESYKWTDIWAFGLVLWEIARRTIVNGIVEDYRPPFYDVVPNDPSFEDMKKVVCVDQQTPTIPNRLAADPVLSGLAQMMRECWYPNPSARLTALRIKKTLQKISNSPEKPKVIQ

For COc1cc2c(Nc3ccc(Br)cc3F)ncnc2cc1OCCCCN(C)C.Cl.Cl [HA121-28, N-(4-bromo-2-fluorophenyl)-7-(4-(dimethylamino)butoxy)-6-methoxy quinazolin-4-amine dihydrochloride], the IC50 (RON) was over 10 µM, the genetic toxicity (Mouse micronucleus test) was “negative” and the IC50 (A498 cells) was 858 ± 17.9 nM. For the same molecule, the IC50 (SGC-7901 cells) was 4.36 ± 0.338 µM, the IC50 (HT29 cells) was 5.4 ± 0.813 µM and the “plasma protein binding rate” value (Plasma protein binding [1]) was 92.4±1.28%. For the same molecule, the IC50 (BTK) was 446 nM, the IC50 (MDA-MB-231 cells; read-out: IC50) was 10 to 100 µM and the IC50 (MDA-MB-231 cells; read-out: IC50, proliferation) was 10.3 ± 2.01 µM. For the same molecule, the “plasma protein binding rate” value (Plasma protein binding [2]) was 91.9±0.857%, the “onset of inhibition of EGFR signaling pathway” value [3] was 2 h and the IC50 (FGFR1-3; FGFR1, read-out: IC50, FGFR1) was 32.3 nM. It also gave an IC50 (FGFR1-3; FGFR2, read-out: IC50, FGFR2) of 20.4 nM, an IC50 (FGFR1-3; FGFR3, read-out: IC50, FGFR3) of 23.1 nM and an IC50 (A431 cells) of 775 ± 76.7 nM. For the same molecule, the IC50 (8305C cells) was 623 ± 80.3 nM, the “number of metabolites found in plasma” value (Metabolites in plasma) was 4 and the “content at 72 h post-dose as fraction of distribution peak” value ([4]; adrenal glands) was 1/8. For the same molecule, the “tissue AUC0-72h exposure relative to plasma” value ([4]; bone marrow) was “≈ 1.3 times plasma”, the “tissue AUC0-72h exposure relative to plasma” value ([4]; brain, adipose tissue, muscles) was 3~9 times plasma and the “tissue AUC0-72h exposure relative to plasma” value ([4]; liver, kidneys, ovaries) was “≈ 100 times plasma”. The “time of distribution peak” value ([4]; liver, stomach, intestines) was 0.5 h, the “time of distribution peak” value ([4]; most tissues) was 4 h and the “tissue AUC0-72h exposure relative to plasma” value ([4]; spleen, lungs, adrenal glands) was “≈ 200 times plasma”. For the same molecule, the “time of distribution peak” value ([4]; testes) was 24 h, the “content at 72 h post-dose as fraction of distribution peak” value ([4]; uterus) was 1/5 and the “tissue AUC0-72h exposure relative to plasma” value ([4]; uterus, testes, thymus, intestines, thyroid, heart, stomach) was 20~60 times plasma. The IC50 (FMS) was 2910 nM, the IC50 (HUVEC cells) was 65.4 nM and the “in vivo anti-tumor effect” value ([5]; 50 mg/kg) was “tumor shrinkage was observed”. The “RTV ±SD” value ([5]; 25 mg/kg) was 2.1±0.6, the T/C ([5]; 25 mg/kg) was 33.8% and the “Terminal Tumor Volume” value ([5]; 25 mg/kg) was 307.4±69.5** mm^3. For the same molecule, the “RTV ±SD” value ([5]; 50 mg/kg) was 0.8±0.2, the T/C ([5]; 50 mg/kg) was 13.6% and the “Terminal Tumor Volume” value ([5]; 50 mg/kg) was 131.9±66.5** mm^3. The “RTV ±SD” value ([5]; 75 mg/kg) was 0.5±0.2, the T/C ([5]; 75 mg/kg) was 8.7% and the “Terminal Tumor Volume” value ([5]; 75 mg/kg) was 86.9±40.0** mm^3. It also gave an IC50 (FLT3) of 556 nM, an IC50 (EGFR(T790M /L828R)) of 166 nM and an IC50 (ABL1) of 153 nM. The IC50 (ALK1) was 2590 nM.
